Data taken from patent publication US11072616B2, “Cyclic peptides targeting alpha-4-beta-7 integrin” (Zealand Pharma A/S, priority 2015, dated 2021).

Biological target: T1, integrin α4β7 (Homo sapiens, UniProt P13612+P26010)
T1 sequence (P13612 34-977 limits assumed): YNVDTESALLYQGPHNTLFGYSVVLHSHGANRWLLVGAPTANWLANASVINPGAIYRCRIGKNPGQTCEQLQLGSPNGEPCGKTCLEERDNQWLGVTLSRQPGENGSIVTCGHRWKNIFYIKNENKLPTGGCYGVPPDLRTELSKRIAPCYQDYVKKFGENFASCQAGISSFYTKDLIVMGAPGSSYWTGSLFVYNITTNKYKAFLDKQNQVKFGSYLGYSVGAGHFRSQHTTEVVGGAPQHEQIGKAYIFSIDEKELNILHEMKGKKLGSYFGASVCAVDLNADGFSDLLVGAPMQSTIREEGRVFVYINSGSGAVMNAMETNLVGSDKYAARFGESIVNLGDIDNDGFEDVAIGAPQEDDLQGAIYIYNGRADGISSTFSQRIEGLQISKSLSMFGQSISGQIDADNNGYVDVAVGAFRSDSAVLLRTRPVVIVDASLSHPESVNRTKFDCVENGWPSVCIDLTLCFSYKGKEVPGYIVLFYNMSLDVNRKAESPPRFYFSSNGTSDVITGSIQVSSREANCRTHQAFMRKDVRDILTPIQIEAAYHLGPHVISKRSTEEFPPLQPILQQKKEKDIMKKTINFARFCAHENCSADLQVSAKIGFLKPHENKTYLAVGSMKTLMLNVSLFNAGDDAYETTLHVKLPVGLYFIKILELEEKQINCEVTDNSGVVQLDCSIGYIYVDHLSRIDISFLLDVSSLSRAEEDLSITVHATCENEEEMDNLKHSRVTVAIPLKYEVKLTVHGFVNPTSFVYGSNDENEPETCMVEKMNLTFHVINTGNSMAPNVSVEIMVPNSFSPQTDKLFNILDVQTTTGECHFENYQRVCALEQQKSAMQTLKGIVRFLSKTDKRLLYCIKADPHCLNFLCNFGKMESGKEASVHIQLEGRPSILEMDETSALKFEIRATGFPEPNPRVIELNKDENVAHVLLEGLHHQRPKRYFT
T1 sequence (P26010 20-723 limits assumed): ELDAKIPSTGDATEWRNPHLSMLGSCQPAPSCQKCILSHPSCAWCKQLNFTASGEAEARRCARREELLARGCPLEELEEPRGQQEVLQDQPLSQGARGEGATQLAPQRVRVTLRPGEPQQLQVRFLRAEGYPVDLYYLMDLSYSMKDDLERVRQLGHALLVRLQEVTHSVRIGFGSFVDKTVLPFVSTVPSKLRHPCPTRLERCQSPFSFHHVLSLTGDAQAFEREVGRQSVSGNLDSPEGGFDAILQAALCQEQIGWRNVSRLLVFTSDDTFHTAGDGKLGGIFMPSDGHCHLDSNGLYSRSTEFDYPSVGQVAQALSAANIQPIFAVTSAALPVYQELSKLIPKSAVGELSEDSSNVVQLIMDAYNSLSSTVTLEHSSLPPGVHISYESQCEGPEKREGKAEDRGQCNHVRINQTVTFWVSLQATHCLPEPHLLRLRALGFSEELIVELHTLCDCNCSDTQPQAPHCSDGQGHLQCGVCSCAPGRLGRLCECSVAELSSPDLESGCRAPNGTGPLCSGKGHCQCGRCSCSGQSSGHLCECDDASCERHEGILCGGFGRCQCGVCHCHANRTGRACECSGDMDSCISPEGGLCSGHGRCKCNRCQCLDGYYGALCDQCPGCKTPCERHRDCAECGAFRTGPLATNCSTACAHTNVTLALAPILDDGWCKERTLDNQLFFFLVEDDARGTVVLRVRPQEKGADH
Assay: Integrin α4β7—MAdCAM-1 competition assay (ELISA)
Type: binding
Details: ratio a4b1 ELISA IC50 / a4b7 ELISA IC50
Procedure: Integrin α4β7—MAdCAM-1 Competition Assay
The plate was incubated at 4° C. overnight. […] The plate was then incubated for 1 hour at room temperature. The plate was washed three times with wash buffer (50 mM Tris, 100 mM NaCl, 1 mM MnCl2, 0.05% Tween). To each well, 50 μl of compound diluted in assay buffer was added by transfer from a compound serial dilution plate. […] The plate was incubated at room temperature with shaking for 2 hours to reach binding equilibrium. Then the plate was washed three times in wash buffer and 100 μl anti-human IgG Fc specific-horseradish peroxidase (HRP) (Abcam, Ab97225) diluted at 1:2000 in assay buffer was added to each well. The plate was incubated at room temperature for 1 hour under agitation. The plates were then washed three times and 100 μl of 1,3′,5,5′-tetramethylbenxidie (TMB) was then added to each well.

SMILES | Selectivity ELISA
CC(C)C[C@@H]1NC(=O)[C@H]2C[C@H](O)CN2C(=O)[C@H](Cc2ccc(CN)cc2)NC(=O)[C@@H]2CCCN2[C@H](C(=O)NC(C)(C)C)[C@H](C)NC(=O)[C@H]([C@@H](C)O)NC(=O)[C@H](CC(=O)O)NC1=O [Compound 152] | 13.2
CC[C@H](C)[C@@H]1NC(=O)[C@H](CC(=O)O)NC(=O)[C@H](CC(C)C)NC(=O)[C@@H](CCCCN)N(C)C(=O)[C@H](Cc2ccc(O)cc2)NC(=O)[C@@H]2CCCN2[C@H](C(=O)NC(C)(C)C)[C@H](C)NC1=O [Compound 154] | 22.8
C=CCOc1ccc(C[C@@H]2NC(=O)[C@@H]3CCCN3[C@H](C(=O)NC(C)(C)C)[C@H](C)NC(=O)[C@H]([C@@H](C)O)NC(=O)[C@H](CC(=O)O)NC(=O)[C@H](CC(C)C)NC(=O)[C@@H](C(C)C)NC2=O)cc1 [Compound 166] | 7.7
CC(C)C[C@@H]1NC(=O)[C@H](Cc2c[nH]cn2)NC(=O)[C@@H]2CCCN2[C@H](C(=O)NC(C)(C)C)[C@@H](CSc2ccccc2)NC(=O)[C@H](C(C)C)NC(=O)[C@H](CC(=O)O)NC1=O [Compound 2] | 1.697
CC(C)C[C@@H]1NC(=O)CN(C)C(=O)[C@H](Cc2csc(-c3cccnc3)n2)NC(=O)[C@@H]2CCCN2[C@H](C(=O)NC(C)(C)C)[C@H](C)NC(=O)[C@H]([C@@H](C)O)NC(=O)[C@H](CC(=O)O)NC1=O [Compound 181] | 12.6
COc1ccc(-c2ccccc2C[C@@H]2NC(=O)[C@@H]3CCCN3[C@H](C(=O)NC(C)(C)C)[C@H](C)NC(=O)[C@H]([C@@H](C)O)NC(=O)[C@H](CC(=O)O)NC(=O)[C@H](CC(C)C)NC(=O)[C@H]3CCCCN3C2=O)cc1 [Compound 137] | 7.8
CC(C)C[C@@H]1NC(=O)[C@H](Cc2csc(-c3ccccn3)n2)NC(=O)[C@@H]2CCCN2[C@H](C(=O)NC(C)(C)C)[C@H](C)NC(=O)[C@H]([C@@H](C)O)NC(=O)[C@H](CC(=O)O)NC1=O [Compound 95] | 2.4
CC(C)C[C@@H]1NC(=O)[C@H](Cc2csc(-c3ccncc3)n2)NC(=O)[C@@H]2CCCN2[C@H](C(=O)NC(C)(C)C)[C@H](C)NC(=O)[C@H]([C@@H](C)O)NC(=O)[C@H](CC(=O)O)NC1=O [Compound 97] | 2.5
CC(C)C[C@@H]1NC(=O)c2cc(cc(-c3ccncc3)c2)CNC(=O)[C@@H]2CCCN2[C@H](C(=O)NC(C)(C)C)[C@H](C)NC(=O)[C@H]([C@@H](C)O)NC(=O)[C@H](CC(=O)O)NC1=O [Compound 362] | 5.6
CC(C)C[C@@H]1NC(=O)[C@H]2CCCCN2C(=O)[C@H](Cc2ccccc2-c2ccccc2)NC(=O)[C@@H]2CCCN2[C@H](C(=O)NC(C)(C)C)[C@H](C)NC(=O)[C@H]([C@@H](C)O)NC(=O)[C@H](CC(=O)O)NC1=O [Compound 134] | 7.6
CC(C)C[C@@H]1NC(=O)[C@H](C2CCCCC2)NC(=O)[C@@H]2CCCN2[C@H](C(=O)NC(C)(C)C)[C@H](C)NC(=O)[C@H]([C@@H](C)O)NC(=O)[C@H](CC(=O)O)NC1=O [Compound 91] | 14.5
CC(C)C[C@@H]1NC(=O)C[C@H](CCCCN)NC(=O)[C@](C)(Cc2ccccc2)NC(=O)[C@@H]2CCCN2[C@H](C(=O)NC(C)(C)C)[C@H](C)NC(=O)[C@H]([C@@H](C)O)NC(=O)[C@H](CC(=O)O)NC1=O [Compound 263] | 23.1
COc1cccc(Cl)c1-c1ccc(C[C@@H]2NC(=O)[C@@H]3CCCN3[C@H](C(=O)NC(C)(C)C)[C@H](C)NC(=O)[C@H]([C@@H](C)O)NC(=O)[C@H](CC(=O)O)NC(=O)[C@H](CC(C)C)NC(=O)C[C@H](CCCCN)NC2=O)cc1 [Compound 269] | 31.6
C=CCOc1ccc(C[C@@H]2NC(=O)[C@@H]3CCCN3[C@H](C(=O)NC(C)(C)C)[C@H](C)NC(=O)[C@H]([C@@H](C)O)NC(=O)[C@H](CC(=O)O)NC(=O)[C@H](CC(C)C)NC(=O)[C@@H](CO)NC2=O)cc1 [Compound 167] | 13.6
